Where a SMILES comes first, the peptide text is derived from it. [ ]: non-standard residue; d: D form. dPhe(4-Cl) = N[C@H](Cc1ccc(Cl)cc1)C(=O)O; d2Nal = N[C@H](Cc1ccc2ccccc2c1)C(=O)O; dCit = NC(=O)NCCC[C@@H](N)C(=O)O; d3Pal = N[C@H](Cc1cccnc1)C(=O)O; pGlu = O=C1CC[C@@H](C(=O)O)N1
Columns and labels:
Primate GnRH-2 receptor [1] = experiment: c-fos-luc luciferase activation in CV-1 cells expressing Primate GnRH-2 receptor; assay type: cell-based
Description: (§1) Complimentary DNA (cDNA) for a Primate GnRH-2 receptor was obtained from a CV-1 cell genome. […] Plasmids having Primate GnRH-2 receptors where transfected into CV-1 cells. To assay the activity of the receptor, c-fos-luc where a luciferase gene is fused with a c-fos promoter was co-transfected as a probe gene. After 48 hours from transfection, the cells were treated with GnRH-2 agonists and then the activity of luciferase was assayed (Seong et al., Endocrinology vol 144 2003, 454-466).
Of the GnRH-2 receptors, [D-Ala^6]GnRH-2 performed excellently, showing effects about 3 times that of a wild-type ligand, GnRH-2. […] When analogs where the 5th, 7th, and 8th amino acids of [D-Ala^6]GnRH-2 are substituted were used, it was observed that their effects were weaker than [D-Ala^6]GnRH-2, and therefore it can be seen that it is important to maintain His, Trp, and Tyr that are found at the 5th, 7th, and 8th positions of GnRH-2 as they are (FIG. 3b).

[2] = system: male rat (Sprague Dawley); experiment: Serum LH and testosterone after injection into male rat (radioimmunoassay); assay type: in vivo; conditions: 10 μg injected
Description: Example 3: GnRH-2 Agonist-induced serum LH and testosterone levels [D-Ala^6]GnRH-2 was dissolved in saline at a concentration of 100 μg/ml, and then 10 μg of [D-Ala^6]GnRH-2 was injected into the cervix of a male rat (Sprague Dawley rat having a weight of approximately 100 g). 1, 2, 4, and 8 hours after the injection, serum was obtained from the rat. The concentration of luteinizing hormone and testosterone present in the serum was measured by radioimmunoassay.

rat GnRHR [3] = target: T1, rat GnRHR (Rattus norvegicus, UniProt P30969); experiment: Inositol phosphate (IP) production in GH3 cells expressing rat GnRHR; assay type: cell-based; conditions: for EC50: GH3 cells, 30 min, given as log EC50 (negative values); for sensitivity compared with GnRH-1: rat GnRHR
T1 construct: expressed in transfected cells; host or cells: GH3 cells, retroviral infection
T1 sequence (P30969 1-327): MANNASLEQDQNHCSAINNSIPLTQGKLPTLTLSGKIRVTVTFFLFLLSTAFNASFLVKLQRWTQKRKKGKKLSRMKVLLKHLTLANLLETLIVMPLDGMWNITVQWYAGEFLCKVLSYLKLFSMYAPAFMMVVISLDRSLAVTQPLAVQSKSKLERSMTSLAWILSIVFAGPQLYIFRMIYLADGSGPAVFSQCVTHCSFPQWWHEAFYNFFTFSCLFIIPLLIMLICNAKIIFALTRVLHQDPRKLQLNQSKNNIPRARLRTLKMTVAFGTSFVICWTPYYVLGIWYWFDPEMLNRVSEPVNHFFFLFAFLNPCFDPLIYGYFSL
Description: The GnRH receptor, a membrane protein connected with the G protein, activates the G protein when activated by a ligand, and the activated G protein activates phospholipase C and thereby the synthesis of inositol phosphate (IP), which is the second transmitter in cells, is increased. Based on this principle, the activity of a receptor can be investigated by measuring the amount of IP within cells. GH3 cell lines were obtained from the Cell Line Bank at the Cancer Research Center, Seoul National University College of Medicine, located in Seoul, Republic of Korea. The GH3 cell lines were infected with retroviruses comprising genes encoding […]-2, and bfGnRHR-3 which are bullfrog GnRH receptors, and rat GnRHR, and cell lines expressing each of these receptors were obtained. The GH3 cells expressing […]-3, and rat GnRHR were cultured on 12-well plates. After 24 hours, the cells were cultured again for 24 hours in a media containing no inositol, to which H^3-myoinositol was added. […] Thereafter, they were treated with GnRH having a suitable concentration, cultured at 37° C. for another 30 minutes, and then the media was eliminated. The cells were treated with 10 mM of ice-cold formic acid to terminate the reaction, and the cell extracts were mixed with Dowex anionic exchange resins. These resins were washed with distilled water, IP was extracted with 1 M ammonium formate/0.1 M formic acid, and cpm (count per minute) was determined. The GH3 cell lines were infected with retroviruses comprising genes encoding […]-2, and bfGnRHR-3 which are bullfrog GnRH receptors, and rat GnRHR, and cell lines expressing each of these receptors were obtained.

bfGnRHR-1 = experiment: Inositol phosphate (IP) production in GH3 cells expressing bfGnRHR-1; assay type: cell-based, bullfrog
Description: The GnRH receptor, a membrane protein connected with the G protein, activates the G protein when activated by a ligand, and the activated G protein activates phospholipase C and thereby the synthesis of inositol phosphate (IP), which is the second transmitter in cells, is increased. Based on this principle, the activity of a receptor can be investigated by measuring the amount of IP within cells. GH3 cell lines were obtained from the Cell Line Bank at the Cancer Research Center, Seoul National University College of Medicine, located in Seoul, Republic of Korea. The GH3 cell lines were infected with retroviruses comprising genes encoding […]-2, and bfGnRHR-3 which are bullfrog GnRH receptors, and rat GnRHR, and cell lines expressing each of these receptors were obtained. The GH3 cells expressing […]-3, and rat GnRHR were cultured on 12-well plates. After 24 hours, the cells were cultured again for 24 hours in a media containing no inositol, to which H^3-myoinositol was added. […] Thereafter, they were treated with GnRH having a suitable concentration, cultured at 37° C. for another 30 minutes, and then the media was eliminated. […] These resins were washed with distilled water, IP was extracted with 1 M ammonium formate/0.1 M formic acid, and cpm (count per minute) was determined. […]

bfGnRHR = experiment: IP production in cells expressing bfGnRHR (bullfrog receptors taken together); assay type: cell-based
Description: GH3 cell lines were obtained from the Cell Line Bank at the Cancer Research Center, Seoul National University College of Medicine, located in Seoul, Republic of Korea. The GH3 cell lines were infected with retroviruses comprising genes encoding bfGnRHR-1, bfGnRHR-2, and bfGnRHR-3 which are bullfrog GnRH receptors, and rat GnRHR, and cell lines expressing each of these receptors were obtained. The GH3 cells expressing bfGnRHR-1, bfGnRHR-2, bfGnRHR-3, and rat GnRHR were cultured on 12-well plates. After 24 hours, the cells were cultured again for 24 hours in a media containing no inositol, to which H^3-myoinositol was added. The resultant cells were washed with buffer A (140 mM NaCl, 20 mM HEPES, 4 mM KCl, 8 mM D-Glucose, 1 mM MgCl2, 1 mM CaCl2, 1 mg/ml BSA) and then cultured in buffer A containing 10 mM LiCl at 37°C. for 30 minutes. Thereafter, they were treated with GnRH having a suitable concentration, cultured at 37° C. for another 30 minutes, and then the media was eliminated. The cells were treated with 10 mM of ice-cold formic acid to terminate the reaction, and the cell extracts were mixed with Dowex anionic exchange resins. These resins were washed with distilled water, IP was extracted with 1 M ammonium formate/0.1 M formic acid, and cpm (count per minute) was determined. […]

rat GnRHR [4] = target: T1, rat GnRHR; experiment: I125-GnRH-2 competitive ligand-receptor binding, membranes of GH3 cells expressing rat GnRHR; conditions: competition with I125-GnRH-2, 4 °C, 16 hours; read-out: Binding affinity (log IC50 value) (converted)
Description: To determine the binding affinity between GnRH and GnRH receptors, GnRH-2 was radiolabeled with I^125. […] After 48 hours, the cells were homogenized to obtain cellular membranes, which were then dissolved in binding buffer (40 mM Tris, pH 7.4, 2 mM MgCl2). 20 μg of membrane proteins were reacted with I^125-GnRH-2 at 4° C. for 16 hours. […] After the reaction was completed, 1^125-GnRH-2 bound to the receptors was filtered using a Brandel harvester, and cpm was measured using a y-counter.

TSU-Pri cells = experiment: Binding of radiolabeled GnRH to TSU-Pri prostate cancer cells; set-up: species or system human; conditions: room temperature, 6 hours
Description: TSU-Pri, which is one of the prostate cancer cell lines, was cultured along with the radiolabeled I^125GnRH-1 and I^125GnRH-2. […] The radiolabeled GnRH and the cells were cultured at room temperature for 6 hours, and then washed with PBS (phosphate-buffered saline) several times to eliminate the unbound GnRH. Thereafter, the cells were isolated and radioactivity from the cells was measured using a y-counter.

Primate GnRH-2 receptor [5] = experiment: Inhibition of GnRH-2-induced c-fos-luc luciferase activity in cells expressing Primate GnRH-2 receptor; assay type: cell-based; conditions: treated at the same time as GnRH-2
Description: as §1
In the same manner as in 2-3 above, Primate GnRH-2 receptors were co-transfected along with c-fos-luc reporter genes, and after 48 hours, GnRH-2 and GnRH-2 antagonists were treated thereinto at the same time and then the effect of GnRH-2 antagonists was observed.

rat GnRHR [6] = target: T1, rat GnRHR; experiment: Inhibition of GnRH-1-induced IP production in GH3 cells expressing rat GnRHR; assay type: cell-based
Description: GH3 cell lines were obtained from the Cell Line Bank at the Cancer Research Center, Seoul National University College of Medicine, located in Seoul, Republic of Korea. The GH3 cell lines were infected with retroviruses comprising genes encoding bfGnRHR-1, bfGnRHR-2, and bfGnRHR-3 which are bullfrog GnRH receptors, and rat GnRHR, and cell lines expressing each of these receptors were obtained. The GH3 cells expressing bfGnRHR-1, bfGnRHR-2, bfGnRHR-3, and rat GnRHR were cultured on 12-well plates. After 24 hours, the cells were cultured again for 24 hours in a media containing no inositol, to which H^3-myoinositol was added. The resultant cells were washed with buffer A (140 mM NaCl, 20 mM HEPES, 4 mM KCl, 8 mM D-Glucose, 1 mM MgCl2, 1 mM CaCl2, 1 mg/ml BSA) and then cultured in buffer A containing 10 mM LiCl at 37°C. for 30 minutes. Thereafter, they were treated with GnRH having a suitable concentration, cultured at 37° C. for another 30 minutes, and then the media was eliminated. The cells were treated with 10 mM of ice-cold formic acid to terminate the reaction, and the cell extracts were mixed with Dowex anionic exchange resins. These resins were washed with distilled water, IP was extracted with 1 M ammonium formate/0.1 M formic acid, and cpm (count per minute) was determined.
However, Trptorelix-1 could reduce the production of IP induced by 1 nM GnRH-2, in a concentration-dependent manner (FIG. 6a to FIG. 6c).

[7] = male rat about 100 g, 1, 2, 4, 8 hours

SMILES	effect, times that of wild-type ligand GnRH-2 (Primate GnRH-2 receptor [1])	time of testosterone peak point after injection ([2]; male rat)	serum luteinizing hormone (LH) [2, 7]	serum testosterone [2, 7]	EC50 (rat GnRHR [3])	sensitivity compared with GnRH-1 (rat GnRHR [3])	concentration activating bfGnRHR-1, fold lower than GnRH-2 (bfGnRHR-1)	fold higher sensitivity than GnRH-1 (bfGnRHR)	fold higher sensitivity than GnRH-2 (bfGnRHR)	IC50 (rat GnRHR [4])	effect of unradiolabeled competitor on binding of radiolabeled GnRH-2 to TSU-Pri cells (TSU-Pri cells)	effect reduced, fold, as compared with GnRH-2 (Primate GnRH-2 receptor [1])	effect on luciferase activity induced by GnRH-2 (Primate GnRH-2 receptor [5])	IC50 (rat GnRHR [6])	binding of the radiolabeled ligand to TSU-Pri cells (TSU-Pri cells)
C[C@@H](NC(=O)[C@H](Cc1c[nH]cn1)NC(=O)[C@H](CO)NC(=O)[C@H](Cc1c[nH]c2ccccc12)NC(=O)[C@H](Cc1c[nH]cn1)NC(=O)[C@@H]1CCC(=O)N1)C(=O)N[C@@H](Cc1c[nH]c2ccccc12)C(=O)N[C@@H](Cc1ccc(O)cc1)C(=O)N1CCC[C@H]1C(=O)NCC(N)=O [[D-Ala^6]GnRH-2, p-Glu-His-Trp-Ser-His-D-Ala-Trp-Tyr-Pro-GlyNH2] ([pGlu]HWSH[dA]WYPG-NH2)	about 3 times	4 h	an increase of luteinizing hormone (LH) was observed in only one hour	began to rapidly increase from 2 hours after the injection	3.24 nM	a sensitivity lower than 10-fold	~8 fold	40-20,000 fold	2.5-10 fold	141 nM	reduced in a concentration-dependent manner	–	–	–	–
NC(=O)CNC(=O)[C@@H]1CCCN1C(=O)[C@H](Cc1ccc(O)cc1)NC(=O)[C@H](Cc1c[nH]c2ccccc12)NC(=O)[C@@H](Cc1c[nH]c2ccccc12)NC(=O)[C@H](Cc1c[nH]cn1)NC(=O)[C@H](CO)NC(=O)[C@H](Cc1c[nH]c2ccccc12)NC(=O)[C@H](Cc1c[nH]cn1)NC(=O)[C@@H]1CCC(=O)N1 [[D-Trp^6]GnRH-2, reference compound] ([pGlu]HWSH[dW]WYPG-NH2)	–	–	–	–	12 nM	–	similar	–	–	97.7 nM	–	~1.2 fold	–	–	–
CC(=O)N[C@H](Cc1ccc2ccccc2c1)C(=O)N[C@H](Cc1ccc(Cl)cc1)C(=O)N[C@H](Cc1cccnc1)C(=O)N[C@@H](CO)C(=O)N[C@@H](Cc1ccc(O)cc1)C(=O)N[C@H](CCCNC(N)=O)C(=O)N[C@@H](CC(C)C)C(=O)N[C@@H](CCCNC(=N)N)C(=O)N1CCC[C@H]1C(=O)N[C@H](C)C(N)=O [Cetrorelix, Ac-D-2Nal-(4Cl)-D-Phe-D-3Pal-Ser-Tyr-D-Cit-Leu-Arg-Pro-D-Ala-NH2, reference compound] (Ac-[d2Nal][dPhe(4-Cl)][d3Pal]SY[dCit]LRP[dA]-NH2)	–	–	–	–	–	–	–	–	–	–	–	–	no effect	0.00933 nM	–
NC(=O)CNC(=O)[C@@H]1CCCN1C(=O)[C@H](Cc1ccc(O)cc1)NC(=O)[C@H](Cc1c[nH]c2ccccc12)NC(=O)CNC(=O)[C@H](Cc1c[nH]cn1)NC(=O)[C@H](CO)NC(=O)[C@H](Cc1c[nH]c2ccccc12)NC(=O)[C@H](Cc1c[nH]cn1)NC(=O)[C@@H]1CCC(=O)N1 [GnRH-2] ([pGlu]HWSHGWYPG-NH2)	–	–	–	–	8.71 nM	a sensitivity lower than 10-fold	–	–	–	832 nM	the binding was reduced	–	–	–	binding with cells was observed
